Laboratory results taken from BindingDB's records for PubMed 32163814 (n/a, 2020).

Experiments:
Histone deacetylase 6 [1] = target: T1, Histone deacetylase 6 (Homo sapiens, UniProt Q9UBN7); assay: Inhibition of human recombinant HDAC6 using fluorogenic HDAC substrate measured after 20 mins by fluorescence assay
T1 sequence (Q9UBN7 whole entry): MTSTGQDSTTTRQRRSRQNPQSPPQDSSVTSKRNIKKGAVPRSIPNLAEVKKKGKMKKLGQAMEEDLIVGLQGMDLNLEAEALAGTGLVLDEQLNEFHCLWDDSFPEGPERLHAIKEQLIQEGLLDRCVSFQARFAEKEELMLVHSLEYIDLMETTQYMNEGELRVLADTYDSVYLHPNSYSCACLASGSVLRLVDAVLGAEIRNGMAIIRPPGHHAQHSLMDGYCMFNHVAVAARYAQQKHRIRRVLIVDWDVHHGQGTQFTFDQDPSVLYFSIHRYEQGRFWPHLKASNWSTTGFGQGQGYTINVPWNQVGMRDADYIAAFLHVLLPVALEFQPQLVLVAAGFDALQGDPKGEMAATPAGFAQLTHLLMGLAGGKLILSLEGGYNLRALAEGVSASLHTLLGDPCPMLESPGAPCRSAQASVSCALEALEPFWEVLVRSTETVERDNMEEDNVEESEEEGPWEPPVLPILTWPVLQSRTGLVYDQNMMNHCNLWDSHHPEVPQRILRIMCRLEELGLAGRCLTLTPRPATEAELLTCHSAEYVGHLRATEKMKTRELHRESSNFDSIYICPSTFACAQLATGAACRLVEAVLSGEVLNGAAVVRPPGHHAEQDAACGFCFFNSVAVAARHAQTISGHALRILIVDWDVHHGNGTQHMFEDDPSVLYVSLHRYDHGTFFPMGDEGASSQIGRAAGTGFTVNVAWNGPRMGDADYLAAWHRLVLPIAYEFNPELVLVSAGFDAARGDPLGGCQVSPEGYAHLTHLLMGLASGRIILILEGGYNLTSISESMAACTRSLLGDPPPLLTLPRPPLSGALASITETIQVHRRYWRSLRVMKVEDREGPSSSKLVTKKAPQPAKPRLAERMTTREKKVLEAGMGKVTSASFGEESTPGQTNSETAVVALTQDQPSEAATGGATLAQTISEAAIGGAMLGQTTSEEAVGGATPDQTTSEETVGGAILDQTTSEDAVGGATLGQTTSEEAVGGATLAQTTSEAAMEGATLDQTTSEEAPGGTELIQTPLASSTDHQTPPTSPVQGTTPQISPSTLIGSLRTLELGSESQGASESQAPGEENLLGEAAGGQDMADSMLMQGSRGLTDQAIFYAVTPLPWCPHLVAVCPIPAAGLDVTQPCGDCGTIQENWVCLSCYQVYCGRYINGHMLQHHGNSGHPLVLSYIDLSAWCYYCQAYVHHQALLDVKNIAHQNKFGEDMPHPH

Histone deacetylase 1 = Histone deacetylase 1 (Homo sapiens, UniProt Q13547); assay: Inhibition of human HDAC1 using fluorogenic as substrate measured after 30 mins by fluorescence based analysis
Chain of Histone deacetylase 1 (Q13547 whole entry): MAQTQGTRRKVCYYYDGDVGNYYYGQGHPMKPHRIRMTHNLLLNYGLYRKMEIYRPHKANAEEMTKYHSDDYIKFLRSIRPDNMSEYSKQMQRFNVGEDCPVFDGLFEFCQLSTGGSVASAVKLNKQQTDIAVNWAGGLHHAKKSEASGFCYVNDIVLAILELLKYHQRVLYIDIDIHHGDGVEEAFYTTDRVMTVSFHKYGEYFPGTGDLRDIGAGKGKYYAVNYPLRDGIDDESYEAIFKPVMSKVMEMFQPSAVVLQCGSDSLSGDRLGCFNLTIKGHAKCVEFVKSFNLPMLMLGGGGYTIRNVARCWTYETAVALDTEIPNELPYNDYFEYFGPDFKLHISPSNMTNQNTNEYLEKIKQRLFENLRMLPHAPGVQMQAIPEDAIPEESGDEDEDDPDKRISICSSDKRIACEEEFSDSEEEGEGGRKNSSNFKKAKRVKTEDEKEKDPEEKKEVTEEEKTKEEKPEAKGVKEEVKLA

Histone deacetylase 2 = Histone deacetylase 2 (Homo sapiens, UniProt Q92769); assay: Inhibition of human HDAC2 using fluorogenic as substrate measured after 30 mins by fluorescence based analysis
Chain of Histone deacetylase 2 (Q92769 whole entry): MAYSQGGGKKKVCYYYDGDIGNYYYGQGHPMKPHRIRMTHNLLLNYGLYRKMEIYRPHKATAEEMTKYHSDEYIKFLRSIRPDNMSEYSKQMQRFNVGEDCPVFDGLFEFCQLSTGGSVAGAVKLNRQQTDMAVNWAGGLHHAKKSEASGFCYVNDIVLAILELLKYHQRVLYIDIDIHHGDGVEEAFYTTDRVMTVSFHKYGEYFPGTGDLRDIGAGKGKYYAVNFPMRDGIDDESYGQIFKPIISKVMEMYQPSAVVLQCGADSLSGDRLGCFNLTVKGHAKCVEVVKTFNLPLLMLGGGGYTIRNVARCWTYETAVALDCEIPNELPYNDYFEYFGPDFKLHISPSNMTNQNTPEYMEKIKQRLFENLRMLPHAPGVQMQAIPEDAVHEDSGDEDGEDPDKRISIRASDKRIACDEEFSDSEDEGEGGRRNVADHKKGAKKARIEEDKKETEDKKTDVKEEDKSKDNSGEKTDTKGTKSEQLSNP

Histone deacetylase 6 [2] = target: T1, Histone deacetylase 6; assay: Inhibition of human HDAC6 using fluorogenic as substrate measured after 30 mins by fluorescence based analysis
Histone deacetylase 3 = Histone deacetylase 3 (Homo sapiens, UniProt O15379); assay: Inhibition of human HDAC3 using fluorogenic as substrate measured after 30 mins by fluorescence based analysis
Chain of Histone deacetylase 3 (O15379 whole entry): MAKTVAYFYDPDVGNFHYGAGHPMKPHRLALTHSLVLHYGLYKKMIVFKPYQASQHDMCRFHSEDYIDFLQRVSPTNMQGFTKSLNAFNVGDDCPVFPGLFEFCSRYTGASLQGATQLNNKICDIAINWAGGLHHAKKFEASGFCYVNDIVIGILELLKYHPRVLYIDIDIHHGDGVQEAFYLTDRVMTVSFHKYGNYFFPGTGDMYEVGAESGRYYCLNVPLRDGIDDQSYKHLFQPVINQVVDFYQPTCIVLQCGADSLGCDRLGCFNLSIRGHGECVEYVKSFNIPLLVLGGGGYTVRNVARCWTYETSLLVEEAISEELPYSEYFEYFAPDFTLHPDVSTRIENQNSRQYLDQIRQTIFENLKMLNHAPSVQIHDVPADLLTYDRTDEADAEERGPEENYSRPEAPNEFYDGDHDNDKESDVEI

| SMILES | IC50 (Histone deacetylase 6 [1]) | IC50 (Histone deacetylase 1) | IC50 (Histone deacetylase 2) | IC50 (Histone deacetylase 6 [2]) | IC50 (Histone deacetylase 3) |
| --- | --- | --- | --- | --- | --- |
| COc1ccccc1NC(=O)N[C@H](C(=O)Nc1ccc(C(=O)NO)cc1)c1ccccc1 | 294 nM | – | – | – | – |
| O=C(NO)c1ccc(NC(=O)[C@@H](NC(=O)c2ccc3ccccc3c2)c2ccccc2)cc1 | – | 29 nM | 244 nM | 376 nM | – |
| O=C(NO)c1ccc(NC(=O)[C@@H](NC(=O)c2cccc(Br)c2)c2ccccc2)cc1 | – | – | 89 nM | 196 nM | – |

Continued, values first:

| IC50 (Histone deacetylase 6 [1]) | IC50 (Histone deacetylase 1) | IC50 (Histone deacetylase 2) | IC50 (Histone deacetylase 6 [2]) | IC50 (Histone deacetylase 3) | SMILES |
| --- | --- | --- | --- | --- | --- |
| – | 31 nM | 171 nM | 295 nM | 23 nM | O=C(NO)c1ccc(NC(=O)[C@@H](NS(=O)(=O)c2cccc3ccccc23)c2ccccc2)cc1 |
| – | – | 107 nM | 366 nM | – | CN(C)c1cccc2c(S(=O)(=O)N[C@H](C(=O)Nc3ccc(C(=O)NO)cc3)c3ccccc3)cccc12 |
